The assay deals with T1, human 5-HT7 receptor (Homo sapiens, UniProt P34969).
T1 construct: expressed in transfected cells; host or cells: CHO cells
T1 sequence (P34969 whole entry): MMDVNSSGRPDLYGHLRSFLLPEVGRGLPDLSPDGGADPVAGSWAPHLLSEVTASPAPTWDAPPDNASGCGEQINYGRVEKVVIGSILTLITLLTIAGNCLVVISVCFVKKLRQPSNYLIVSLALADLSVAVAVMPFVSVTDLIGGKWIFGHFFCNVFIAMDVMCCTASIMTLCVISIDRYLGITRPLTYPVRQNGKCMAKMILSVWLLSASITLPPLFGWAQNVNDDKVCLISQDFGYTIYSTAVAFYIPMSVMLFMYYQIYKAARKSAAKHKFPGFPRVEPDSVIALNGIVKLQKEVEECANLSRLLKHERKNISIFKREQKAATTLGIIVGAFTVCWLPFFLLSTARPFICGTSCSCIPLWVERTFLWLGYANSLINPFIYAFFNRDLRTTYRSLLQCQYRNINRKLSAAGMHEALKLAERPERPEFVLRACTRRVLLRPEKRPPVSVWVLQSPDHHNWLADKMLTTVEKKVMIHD
Nature of the assay: 5-HT7 Receptor Binding Assay. Conditions: membranes of CHO cells expressing human 5-HT7 receptor; 1 nM 3H-5-carboxamidotryptamine; 25° C., 60 minutes. Here is the method:
5-HT7 Receptor Binding Assay
Membranes are prepared for binding using the human 5-HT7 receptor expressed in CHO cells. Cells are collected and ruptured using a dounce homogenizer. The cells are spun at 18000× g for 10 minutes and the pellet is resuspended in assay buffer, frozen in liquid nitrogen and kept at −80° C. until the day of the assay.
A total of 30 ug protein is used per well. The assay is carried out in 96-deep-well plates. The assay buffer is 50 mM HEPES. The membrane preparation is incubated at 25° C. for 60 minutes with 0.1 nM to 1000 nM test compound and 1 nM ^3H-5-carboxamidotryptamine. 10 uM serotonin is used as blocking agent to determine non-specific binding. The reaction is terminated by the addition of 1 ml of ice cold 5OmM HEPES buffer and rapid filtration through a Brandel Cell Harvester using Whatman GF/B filters. The filter pads are counted in an LKB Trilux liquid scintillation counter. IC50 values are determined using non-linear regression by Exel-fit.
For the molecule `C[C@H](Nc1nc(N)nc(NCCNc2ccccc2)n1)c1cccc2ccccc12` [Compound 38, N^2-[(1S)-1-(1-Napthalenyl)ethyl]-N^4-[2-(phenylamino)ethyl]-1,3,5-triazine-2,4,6-triamine], the IC50 was 101 to 200 nM. Turning to `C[C@H](Nc1nc(N)nc(NCCc2ccc(Br)cc2)n1)c1ccc([N+](=O)[O-])cc1` [Compound 39, N^2-[2-(4-Bromophenyl)ethyl]-N^4-[(1S)-1-(4-nitrophenyl)ethyl]-1,3,5-triazine-2,4,6-triamine], the IC50 lay within 101 to 200 nM.

As for `CC[C@H](Nc1nc(N)nc(NCCOc2ccccc2)n1)c1ccccc1` [Compound 40, N^2-[2-(Phenoxy)ethyl]-N^4-[(1S)-1-phenylpropyl]-1,3,5-triazine-2,4,6-triamine], the IC50 fell in the range of 51 to 100 nM.

As for `C[C@H](Nc1nc(N)nc(NCCOc2ccccc2)n1)c1ccccc1` [Compound 41, N^2-[2-(Phenoxy)ethyl]-N^4-[(1S)-1-phenylethyl]-1,3,5-triazine-2,4,6-triamine], the IC50 was in the range of 51 to 100 nM. Consider `C[C@H](Nc1nc(N)nc(NCCOc2ccccc2)n1)c1cccc2ccccc12` [Compound 42, N^2-[(1S)-1-(1-Napthyl)ethyl]-N^4-[2-(phenoxy)ethyl]-1,3,5-triazine-2,4,6-triamine], for which the IC50 lay in the range of 51 to 100 nM.

`C[C@H](Nc1nc(N)nc(NCCOc2ccc(F)cc2)n1)c1ccc([N+](=O)[O-])cc1` [Compound 45, N^2-[2-(4-Fluorophenoxy)ethyl]-N^4-[(1S)-1-(4-nitrophenyl)ethyl]-1,3,5-triazine-2,4,6-triamine] registered an IC50 of 51 to 100 nM.

In the case of `C[C@H](Nc1nc(N)nc(NCCOc2ccc(F)c(F)c2)n1)c1ccc([N+](=O)[O-])cc1` [Compound 47, N^2-[2-(3,4-Difluorophenoxy)ethyl]-N^4-[(1S)-1-(4-nitrophenyl)ethyl]-1,3,5-triazine-2,4,6-triamine], the IC50 was 51 to 100 nM. The same measure for `C[C@H](Nc1nc(N)nc(NCCc2ccccc2F)n1)c1ccccc1` [Compound 48, N^2-[2-(2-Fluorophenyl)ethyl]-N^4-[(1S)-1-phenylethyl]-1,3,5-triazine-2,4,6-triamine]: 51 to 100 nM; for `CC[C@H](Nc1nc(N)nc(NCCc2ccc(C)cc2)n1)c1ccccc1` [Compound 49, N^2-[2-(4-Methylphenyl)ethyl]-N^4-[(1S)-1-phenylpropyl]-1,3,5-triazine-2,4,6-triamine]: 51 to 100 nM. For `C[C@H](Nc1nc(N)nc(NCCc2ccc(Cl)cc2)n1)c1ccccc1` [Compound 50, N^2-[2-(4-Chlorophenyl)ethyl]-N^4-[(1S)-1-phenylethyl]-1,3,5-triazine-2,4,6-triamine], the IC50 was in the range of 51 to 100 nM. On to `CC[C@H](Nc1nc(N)nc(NCCc2ccccc2F)n1)c1ccccc1` [Compound 51, N^2-[2-(2-Fluorophenyl)ethyl]-N^4-[(1S)-1-phenylpropyl]-1,3,5-triazine-2,4,6-triamine], for which the IC50 fell in the range of 51 to 100 nM. The same measure for `CC[C@H](Nc1nc(N)nc(NCCc2cccc(OC)c2)n1)c1ccccc1` [Compound 52, N^2-[2-(3-Methoxyphenyl)ethyl]-N^4-[(1S)-1-phenylpropyl]-1,3,5-triazine-2,4,6-triamine]: 51 to 100 nM. In the case of `C[C@H](Nc1nc(N)nc(NCCc2cccc(C(F)(F)F)c2)n1)c1ccccc1` [Compound 53, N^2-[(1S)-1-Phenylethyl]-N^4-{2-[3-(trifluoromethyl)phenyl]ethyl}-1,3,5-triazine-2,4,6-triamine], the IC50 was in the range of 51 to 100 nM. On to `COc1cccc(CCNc2nc(N)nc(N[C@@H](C)c3ccccc3)n2)c1` [Compound 54, N^2-[2-(3-Methoxyphenyl)ethyl]-N^4-[(1S)-1-phenylethyl]-1,3,5-triazine-2,4,6-triamine], for which the IC50 was 51 to 100 nM.

In the case of `C[C@H](Nc1nc(N)nc(NCCc2cccc(C#N)c2)n1)c1ccccc1` [Compound 55, N^2-[2-(3-Cyanophenyl)ethyl]-N^4-[(1S)-1-phenylethyl]-1,3,5-triazine-2,4,6-triamine], the half-inhibitory concentration (IC50) lay in the range of 51 to 100 nM. Next, `C[C@H](Nc1nc(N)nc(NCCc2ccccc2)n1)c1cccc2ccccc12` [Compound 56, N^2-[(1S)-1-(1-Napthalenyl)ethyl]-N^4-(2-phenylethyl)-1,3,5-triazine-2,4,6-triamine]: 51 to 100 nM. `C[C@H](Nc1nc(N)nc(NCCC2=CCCCC2)n1)c1ccccc1` [Compound 57, N^2-[2-(1-Cyclohexenyl)ethyl]-N^4-[(1S)-1-phenylethyl]-1,3,5-triazine-2,4,6-triamine] had an IC50 of 51 to 100 nM. The same measure for `C[C@H](Nc1nc(N)nc(NCCc2cccc(Cl)c2)n1)c1ccc([N+](=O)[O-])cc1` [Compound 58, N^2-[2-(3-Chlorophenyl)ethyl]-N^4-[(1S)-1-(4-nitrophenyl)ethyl]-1,3,5-triazine-2,4,6-triamine]: 51 to 100 nM; for `C[C@H](Nc1nc(N)nc(NCCc2ccc(Cl)cc2)n1)c1ccc([N+](=O)[O-])cc1` [Compound 59, N^2-[2-(4-Chlorophenyl)ethyl]-N^4-[(1S)-1-(4-nitrophenyl)ethyl]-1,3,5-triazine-2,4,6-triamine]: 51 to 100 nM; for `C[C@H](Nc1nc(N)nc(NCCc2ccccc2)n1)c1ccccc1` [Compound 60, N^2-[(1S)-1-Phenylethyl]-N^4-(2-phenylethyl)-1,3,5-triazine-2,4,6-triamine]: not above 50 nM. As to `C[C@H](Nc1nc(N)nc(NCCc2cccc(F)c2)n1)c1ccccc1` [Compound 61, N^2-[2-(3-Fluorophenyl)ethyl]-N^4-[(1S)-1-phenylethyl]-1,3,5-triazine-2,4,6-triamine], the IC50 is not above 50 nM. Turning to `C[C@H](Nc1nc(N)nc(NCCc2cccc(Cl)c2)n1)c1ccccc1` [Compound 62, N^2-[2-(3-Chlorophenyl)ethyl]-N^4-[(1S)-1-phenylethyl]-1,3,5-triazine-2,4,6-triamine], the IC50 was not above 50 nM. In turn, `CC[C@H](Nc1nc(N)nc(NCCc2cccc(F)c2)n1)c1ccccc1` [Compound 63, N^2-[2-(3-Fluorophenyl)ethyl]-N^4-[(1S)-1-phenylpropyl]-1,3,5-triazine-2,4,6-triamine] displayed an IC50 not above 50 nM.

Turning to `C[C@H](Nc1nc(N)nc(NCCc2ccc(F)cc2)n1)c1ccccc1` [Compound 64, N^2-[2-(4-Fluorophenyl)ethyl]-N^4-[(1S)-1-phenylethyl]-1,3,5-triazine-2,4,6-triamine], the IC50 was not above 50 nM. Molecule `CC[C@H](Nc1nc(N)nc(NCCc2ccccc2)n1)c1ccccc1` [Compound 65, N^2-2-Phenylethyl-N^4-[(1S)-1-phenylpropyl]-1,3,5-triazine-2,4,6-triamine] came in with an IC50 not above 50 nM. The same measure for `C[C@H](Nc1nc(N)nc(NCCc2cccc(Br)c2)n1)c1ccccc1` [Compound 66, N^2-[2-(3-Bromophenyl)ethyl]-N^4-[(1S)-1-phenylethyl]-1,3,5-triazine-2,4,6-triamine]: not above 50 nM; for `CC[C@H](Nc1nc(N)nc(NCCc2ccc(F)cc2)n1)c1ccccc1` [Compound 67, N^2-[2-(4-Fluorophenyl)ethyl]-N^4-[(1S)-1-phenylpropyl]-1,3,5-triazine-2,4,6-triamine]: not above 50 nM; for `C[C@H](Nc1nc(N)nc(NCCc2cccc(F)c2)n1)c1ccc(Br)cc1` [Compound 68, N^2-[(1S)-1-(4-Bromophenyl)ethyl]-N^4-[2-(3-fluorophenyl)ethyl]-1,3,5-triazine-2,4,6-triamine]: not above 50 nM. As to `CC[C@H](Nc1nc(N)nc(NCCc2cccc(Cl)c2)n1)c1ccccc1` [Compound 69, N^2-[2-(3-Chlorophenyl)ethyl]-N^4-[(1S)-1-phenylpropyl]-1,3,5-triazine-2,4,6-triamine], the IC50 was not above 50 nM. `C[C@H](Nc1nc(N)nc(NCCc2ccc(F)cc2)n1)c1ccc(Br)cc1` [Compound 70, N^2-[(1S)-1-(4-Bromophenyl)ethyl]-N^4-[2-(4-fluorophenyl)ethyl]-1,3,5-triazine-2,4,6-triamine]: the IC50 was not above 50 nM. The molecule `C[C@H](Nc1nc(N)nc(NCCc2ccc(Cl)c(Cl)c2)n1)c1ccccc1` [Compound 71, N^2-[2-(3,4-Dichlorophenyl)ethyl]-N^4-[(1S)-1-phenylethyl]-1,3,5-triazine-2,4,6-triamine] came in with an IC50 not above 50 nM.

`Cc1ccc(CCNc2nc(N)nc(N[C@@H](C)c3ccccc3)n2)cc1` [Compound 72, N^2-[2-(4-Methylphenyl)ethyl]-N^4-[(1S)-1-phenylethyl]-1,3,5-triazine-2,4,6-triamine] registered an IC50 not above 50 nM. The same measure for `C[C@H](Nc1nc(N)nc(NCCc2cccc(O)c2)n1)c1ccccc1` [Compound 73, N^2-[2-(3-Hydroxyphenyl)ethyl]-N^4-[(1S)-1-phenylethyl]-1,3,5-triazine-2,4,6-triamine]: not above 50 nM. The same measure for `C[C@H](Nc1nc(N)nc(NCCc2ccc(F)cc2)n1)c1ccc([N+](=O)[O-])cc1` [Compound 74, N^2-[2-(4-Fluorophenyl)ethyl]-N^4-[(1S)-1-(4-nitrophenyl)ethyl]-1,3,5-triazine-2,4,6-triamine]: not above 50 nM; for `C[C@H](Nc1nc(N)nc(NCCc2ccc(O)cc2)n1)c1ccc([N+](=O)[O-])cc1` [Compound 75, N^2-[2-(4-Hydroxyphenyl)ethyl]-N^4-[(1S)-1-(4-nitrophenyl)ethyl]-1,3,5-triazine-2,4,6-triamine]: not above 50 nM. Take `C[C@H](Nc1nc(N)nc(NCCc2ccccc2F)n1)c1ccc([N+](=O)[O-])cc1` [Compound 76, N^2-[2-(2-Fluorophenyl)ethyl]-N^4-[(1S)-1-(4-nitrophenyl)ethyl]-1,3,5-triazine-2,4,6-triamine]: the IC50 is not above 50 nM.

The IC50 is the concentration needed to halve the response being measured. Read a low IC50 as greater potency in that assay.

The values above are taken from patent US6630469B2, “5-HT7 receptor antagonists” (Bristol-Myers Squibb Company, priority 2000, dated 2003).
